The values below are quoted from earlier work in patent publication US20050255155A1, “Modified release cilostazol compositions” (Glenmark Pharmaceuticals Limited, priority 2004, published 2005).

For the series the following is noted: BCS characterisation.

Regarding `O=C1CCc2cc(OCCCCc3nnnn3C3CCCCC3)ccc2N1` [cilostazol, 6-[4-(1-cyclohexyl-1H-tertazole-5-yl)butoxy]-3,4-dihydro-2 (1H)-quinolinone], the solubility result is “low solubility”.
